Measured values published in patent publication US20240139172A1, “PIPERIDINE UREA DERIVATIVES FOR CANCER THERAPY” (NeuroPn Therapeutics, Inc., priority 2022, published 2024).

Test system: adult zebrafish
Assay: Paclitaxel-induced peripheral neuropathy in adult zebrafish (number of stimuli until twitch)
Assay type: in vivo
Details: 3 μL of 10-μM paclitaxel solution for four consecutive days, FIG. 9
Experimental: Method to evaluate potential of compounds of Formula 1 to reduce or block chemotherapy-induced peripheral neuropathy—Animal (zebrafish) model described below and in literature (Lisse T S et al PNAS 113 (15) E2189-E2198) was used to evaluate potential of compounds of Formula 1 to reduce or block neuronal damage induced by chemotherapeutics.
To induce peripheral neuropathy in adult zebrafish, 3 μL of a 10-μM paclitaxel solution in 0.15% DMSO was administered with a 33 gauge Hamilton Syringe for a zebrafish with average ˜200 mg body weight. Fish were treated with vehicle alone or paclitaxel for four consecutive days (Days 2-5) or paclitaxel with Compound A (10- or 30 ng). Compound A was dosed orally by mixing with the fish feed pellets. Fishes were conditioned to consume three pellets a day. […] To prepare test compound infused pellet, a known quantity of the compound was mixed with the known quantity of the feed powder and were extruded in to 4 mg pellet containing the desired administration dose per pellet. Concentration of test compound dosed per fish were controlled by the number of pellets and the quantity of compound per pellet. […]
To determine the peripheral nerve damage, fish were wrapped in plastic foil until calm, and the distal tail fin was stimulated with an insect pin until twitching of the fish was observed. Number of stimuli until twitch was recorded.

SMILES: CC(=O)O[C@H]1C(=O)[C@@]2(C)[C@H]([C@H](OC(=O)c3ccccc3)[C@]3(O)C[C@H](OC(=O)[C@H](O)[C@@H](NC(=O)c4ccccc4)c4ccccc4)C(C)=C1C3(C)C)[C@]1(OC(C)=O)CO[C@@H]1C[C@@H]2O [paclitaxel]
- peripheral nerve damage (increase in number of stimuli needed) compared to vehicle alone: significant nerve damage
